Reference: patent EP0183129A1, “Quinolonecarboxylic acid derivatives” (KYORIN PHARMACEUTICAL CO., LTD., priority 1984, dated 1986)
≈ marks a conversion by molar mass, not a printed value.

Key:
S. aureus Smith [1] = assay: In vitro antibacterial activity, MIC (standard strain); assay type: cell-based, Staphylococcus aureus; details: Staphylococcus aureus; S. aureus Smith; 10^6 cells/ml; standard strain; read-out: MIC
[2] = test system: Streptococcus pyogenes S-8; assay: as above; assay type: cell-based; details: S8; Streptococcus pyogenes S-8; 10^6 cells/ml; standard strain; read-out: MIC
S. pyogenes IID 692 = assay: as above; assay type: cell-based; details: Streptococcus pyogenes, IID692; S. pyogenes IID 692; 10^6 cells/ml; standard strain; read-out: MIC
S. faecalis IID 682 = assay: as above; assay type: cell-based; details: Enterococcus faecalis, IID682; S. faecalis IID 682; 10^6 cells/ml; standard strain; read-out: MIC
[3] = test system: Escherichia coli NIHJ JC-2; assay: as above; assay type: cell-based; details: Escherichia coli, NIHJJC2, Escherichia coli NIHJ JC-2; 10^6 cells/ml; standard strain; read-out: MIC
E. coli ML 4707 = assay: as above; assay type: cell-based; details: Escherichia coli, ML4707; E. coli ML 4707; 10^6 cells/ml; standard strain; read-out: MIC
[4] = test system: Citrobacter freundii IID 976; assay: as above; assay type: cell-based; details: IID976; Citrobacter freundii IID 976; 10^6 cells/ml; standard strain; read-out: MIC
[5] = test system: Klebsiella pneumoniae KY(GN)6445; assay: as above; assay type: cell-based; details: Klebsiella pneumoniae KY(GN)6445; 10^6 cells/ml; standard strain; read-out: MIC
K. pneumoniae 1-220S = assay: as above; assay type: cell-based; details: Klebsiella pneumoniae, 1220S; K. pneumoniae 1-220S; 10^6 cells/ml; standard strain; read-out: MIC
Shigella sonnei IID 969 = assay: as above; assay type: cell-based; details: IID969, 10^6 cells/ml
Procedure: Experiment-1 In vitro antibacterial activity
The in vitro antibacterial activity against gram-positive and gram-negative bacteria has been investivated.
The minimum inhibitory concentration (MIC) was determined in accordance with the method recommended by Japan Society of Chemotherapy.

[6] = test system: Yersinia enterocolitica IID 981; assay: as above; assay type: cell-based; details: IID981; Yersinia enterocolitica IID 981; 10^6 cells/ml; standard strain; read-out: MIC
S. marcescens GN 7577 = assay: as above; assay type: cell-based; details: Serratia marcescens, GN7577; S. marcescens GN 7577; 10^6 cells/ml; standard strain; read-out: MIC
P. aeruginosa IFO 12689 = assay: as above; assay type: cell-based, Pseudomonas aeruginosa; details: Pseudomonas aeruginosa, IFO12689; P. aeruginosa IFO 12689; 10^6 cells/ml; standard strain; read-out: MIC
[7] = test system: Alcaligenes faecalis 0104002; assay: as above; assay type: cell-based; details: Alcaligenes faecalis, 0104002, Alcaligenes faecalis 0104002; 10^6 cells/ml; standard strain; read-out: MIC
B. fragilis 0558 = assay: as above; assay type: cell-based, Bacteroides fragilis; details: Bacteroides fragilis, 0558, B. fragilis 0558; 10^6 cells/ml; standard strain; read-out: MIC
[8] = test system: Fusobacterium varium KYA 8501; assay: as above; assay type: cell-based; details: Fusobacterium varium, KYA8501, Fusobacterium varium KYA 8501; 10^6 cells/ml; standard strain; read-out: MIC
S. pneumoniae 3227 = assay: In vitro antibacterial activity, MIC (clinical isolates); assay type: cell-based; details: Streptococcus pneumoniae; S. pneumoniae 3227; 10^6 cells/ml; clinical isolate; read-out: MIC
S. pyogenes 3130 = assay: as above; assay type: cell-based; details: Streptococcus pyogenes, read-out: MIC
S. pyogenes 4340 = assay: as above; assay type: cell-based; details: Streptococcus pyogenes; S. pyogenes 4340; 10^6 cells/ml; clinical isolate; read-out: MIC
S. agalactiae 4342 = assay: as above; assay type: cell-based; details: Streptococcus agalactiae; S. agalactiae 4342; 10^6 cells/ml; clinical isolate; read-out: MIC
S. agalactiae 4468 = assay: as above; assay type: cell-based; details: Streptococcus agalactiae; S. agalactiae 4468; 10^6 cells/ml; clinical isolate; read-out: MIC
S. faecalis 49 = assay: as above; assay type: cell-based; details: Enterococcus faecalis; S. faecalis 49; 10^6 cells/ml; clinical isolate; read-out: MIC
S. faecalis 402 = assay: as above; assay type: cell-based; details: Enterococcus faecalis; S. faecalis 402; 10^6 cells/ml; clinical isolate; read-out: MIC
E. coli ML4707 = assay: In vivo antibacterial activity against systemic infection in mice; design: species or system mice (ICR-S); details: for ED50: Escherichia coli, ML4707, mice (ICR-S), oral, an hour after intraperitoneal infection, challenge dose 2.7 x 10^6 ~ 8.8 x 10^6 cfu/mouse, read-out: ED50 E. coli ML4707
Procedure: (§1) Experiment-2 In vivo antibacterial activity against systemic infection in mice (ICR-S)
(§2) The infections were produced by intraperitoneal injection of a suspension of the bacterial culture corresponding to the germ studied. The products were administered orally at an hour after the infection.

S. aureus Smith [9] = assay: as above; design: species or system mice (ICR-S); details: Staphylococcus aureus, po, mice (ICR-S), an hour after intraperitoneal infection, challenge dose 6.0 x 10^5 cfu/mouse, read-out: ED50 S. aureus Smith
Procedure: as §1, §2

S. pneumoniae S-4288 = assay: as above; design: species or system mice (ICR-S); details: Streptococcus pneumoniae, S4288; mice (ICR-S); oral, an hour after intraperitoneal infection; challenge dose 7.5 x 10^4 ~ 4.8 x 10^6 cfu/mouse; read-out: ED50 S. pneumoniae S-4288
Procedure: as §1, §2

Q: Which results are given for `CN(C)CC1CCN(c2c(F)cc3c(=O)c(C(=O)O)cn(C4CC4)c3c2Cl)C1` (stereo not drawn) [Example 20, 8-Chloro-1-cyclopropyl-6-fluoro-1,4-dihydro-7-(3-dimethylaminomethyl-l-pyrrolidinyl)-4-oxo-3-quinolinecarboxylic acid]?
A: MIC (S. aureus Smith [1]): 0.025 µg/mL (≈ 0.0613 µM); MIC [2]: 0.05 µg/mL (≈ 0.123 µM); MIC (S. pyogenes IID 692): 0.1 µg/mL (≈ 0.245 µM); MIC (S. faecalis IID 682): 0.1 µg/mL (≈ 0.245 µM); MIC [3]: 0.025 µg/mL (≈ 0.0613 µM); MIC (E. coli ML 4707): 0.05 µg/mL (≈ 0.123 µM); MIC [4]: 0.05 µg/mL (≈ 0.123 µM); MIC [5]: 0.05 µg/mL (≈ 0.123 µM); MIC (K. pneumoniae 1-220S): 0.1 µg/mL (≈ 0.245 µM); MIC (Shigella sonnei IID 969): 0.05 µg/mL (≈ 0.123 µM); MIC [6]: 0.1 µg/mL (≈ 0.245 µM); MIC (S. marcescens GN 7577): 1.56 µg/mL (≈ 3.82 µM); MIC (P. aeruginosa IFO 12689): 3.13 µg/mL (≈ 7.67 µM); MIC [7]: 0.39 µg/mL (≈ 0.956 µM); MIC (B. fragilis 0558): ≤ 0.05 µg/mL; MIC [8]: 0.78 µg/mL (≈ 1.91 µM); MIC (S. pneumoniae 3227): 0.1 µg/mL (≈ 0.245 µM); MIC (S. pyogenes 3130): 0.05 µg/mL (≈ 0.123 µM); MIC (S. pyogenes 4340): 0.05 µg/mL (≈ 0.123 µM); MIC (S. agalactiae 4342): 0.1 µg/mL (≈ 0.245 µM); MIC (S. agalactiae 4468): 0.1 µg/mL (≈ 0.245 µM); MIC (S. faecalis 49): 0.1 µg/mL (≈ 0.245 µM); MIC (S. faecalis 402): 0.1 µg/mL (≈ 0.245 µM); ED50 (E. coli ML4707): 2.1 mg/kg

Q: How did the MIC (S. aureus Smith [1]) turn out when `CN(C)CC1CCN(c2c(F)cc3c(=O)c(C(=O)O)cn(C4CC4)c3c2F)C1` (stereo not drawn) [Example 21, 1-Cyclopropyl-6,8-difluoro-1,4-dihydro-7-(3-dimethylaminomethyl-1-pyrrolidinyl)-4-oxo-3-quinolinecarboxylic acid] was run?
A: Its MIC is 0.05 µg/mL (≈ 0.128 µM).

Q: And the MIC [2]?
A: The MIC was 0.1 µg/mL (≈ 0.255 µM).

Q: And the MIC (S. pyogenes IID 692)?
A: The MIC was 0.2 µg/mL (≈ 0.511 µM).

Q: And the MIC (S. faecalis IID 682)?
A: The MIC was 0.2 µg/mL (≈ 0.511 µM).

Q: And the MIC [3]?
A: Its MIC is 0.05 µg/mL (≈ 0.128 µM).

Q: What about the MIC (E. coli ML 4707) of the same compound?
A: Its MIC is 0.05 µg/mL (≈ 0.128 µM).

Q: And the MIC [4]?
A: Its MIC is 0.05 µg/mL (≈ 0.128 µM).

Q: What about the MIC [5] of the same compound?
A: Its MIC is 0.05 µg/mL (≈ 0.128 µM).

Q: What about the MIC (K. pneumoniae 1-220S) of the same compound?
A: Its MIC is 0.2 µg/mL (≈ 0.511 µM).

Q: What about the MIC (Shigella sonnei IID 969) of the same compound?
A: Its MIC is 0.05 µg/mL (≈ 0.128 µM).

Q: And the MIC [6]?
A: Its MIC is 0.1 µg/mL (≈ 0.255 µM).

Q: What about the MIC (S. marcescens GN 7577) of the same compound?
A: Its MIC is 1.56 µg/mL (≈ 3.99 µM).

Q: And the MIC (P. aeruginosa IFO 12689)?
A: Its MIC is 3.13 µg/mL (≈ 8 µM).

Q: And the MIC [7]?
A: The MIC was 0.78 µg/mL (≈ 1.99 µM).

Q: What about the MIC (B. fragilis 0558) of the same compound?
A: Its MIC is 0.2 µg/mL (≈ 0.511 µM).

Q: What about the MIC [8] of the same compound?
A: Its MIC is 3.13 µg/mL (≈ 8 µM).

Q: And the MIC (S. pneumoniae 3227)?
A: The MIC was 0.2 µg/mL (≈ 0.511 µM).

Q: And the MIC (S. pyogenes 3130)?
A: Its MIC is 0.1 µg/mL (≈ 0.255 µM).

Q: What about the MIC (S. pyogenes 4340) of the same compound?
A: Its MIC is 0.1 µg/mL (≈ 0.255 µM).

Q: And the MIC (S. agalactiae 4342)?
A: The MIC was 0.2 µg/mL (≈ 0.511 µM).

Q: And the MIC (S. agalactiae 4468)?
A: The MIC was 0.2 µg/mL (≈ 0.511 µM).

Q: And the MIC (S. faecalis 49)?
A: Its MIC is 0.2 µg/mL (≈ 0.511 µM).

Q: And the MIC (S. faecalis 402)?
A: Its MIC is 0.2 µg/mL (≈ 0.511 µM).

Q: What about the ED50 (E. coli ML4707) of the same compound?
A: The ED50 was 1.2 mg/kg.

Q: What about the “activity against gram-negative bacterial infections compared with the reference compounds” value (E. coli ML4707; systemic infection in mice, result in words) of the same compound?
A: The value was “greater activity against gram-negative bacterial infections than the reference compounds”.

Q: How did the MIC (S. aureus Smith [1]) turn out when `CCNCC1CCN(c2c(F)cc3c(=O)c(C(=O)O)cn(CC)c3c2F)C1` (stereo not drawn) [Ref.1, 1-Ethyl-7-(3-ethylaminomethyl-1-pyrrolidinyl)-6,8-difluoro-1,4-dihydro-4-oxo-3-quinolinecarboxylic acid, reference compound] was run?
A: The MIC was 0.1 µg/mL (≈ 0.264 µM).

Q: And the MIC [2]?
A: The MIC was 0.2 µg/mL (≈ 0.527 µM).

Q: And the MIC (S. pyogenes IID 692)?
A: Its MIC is 0.39 µg/mL (≈ 1.03 µM).

Q: And the MIC (S. faecalis IID 682)?
A: The MIC was 0.2 µg/mL (≈ 0.527 µM).

Q: What about the MIC [3] of the same compound?
A: Its MIC is 0.1 µg/mL (≈ 0.264 µM).

Q: And the MIC (E. coli ML 4707)?
A: Its MIC is 0.1 µg/mL (≈ 0.264 µM).

Q: And the MIC [4]?
A: The MIC was 0.2 µg/mL (≈ 0.527 µM).

Q: And the MIC [5]?
A: The MIC was 0.2 µg/mL (≈ 0.527 µM).

Q: And the MIC (K. pneumoniae 1-220S)?
A: The MIC was 0.39 µg/mL (≈ 1.03 µM).

Q: And the MIC (Shigella sonnei IID 969)?
A: The MIC was 0.1 µg/mL (≈ 0.264 µM).

Q: And the MIC [6]?
A: Its MIC is 0.39 µg/mL (≈ 1.03 µM).

Q: What about the MIC (S. marcescens GN 7577) of the same compound?
A: Its MIC is 6.25 µg/mL (≈ 16.5 µM).

Q: What about the MIC (P. aeruginosa IFO 12689) of the same compound?
A: The MIC was 6.25 µg/mL (≈ 16.5 µM).

Q: What about the MIC [7] of the same compound?
A: The MIC was 12.5 µg/mL (≈ 32.9 µM).

Q: And the MIC (B. fragilis 0558)?
A: The MIC was 6.25 µg/mL (≈ 16.5 µM).

Q: And the MIC [8]?
A: Its MIC is 6.25 µg/mL (≈ 16.5 µM).

Q: What about the MIC (S. pneumoniae 3227) of the same compound?
A: The MIC was 0.39 µg/mL (≈ 1.03 µM).

Q: And the MIC (S. pyogenes 3130)?
A: The MIC was 0.2 µg/mL (≈ 0.527 µM).

Q: And the MIC (S. pyogenes 4340)?
A: Its MIC is 0.2 µg/mL (≈ 0.527 µM).

Q: What about the MIC (S. agalactiae 4342) of the same compound?
A: The MIC was 0.39 µg/mL (≈ 1.03 µM).

Q: What about the MIC (S. agalactiae 4468) of the same compound?
A: The MIC was 0.39 µg/mL (≈ 1.03 µM).

Q: And the MIC (S. faecalis 49)?
A: Its MIC is 0.39 µg/mL (≈ 1.03 µM).

Q: And the MIC (S. faecalis 402)?
A: Its MIC is 0.78 µg/mL (≈ 2.06 µM).

Q: And the ED50 (E. coli ML4707)?
A: The ED50 was greater than 10 mg/kg.

Q: What about the ED50 (S. aureus Smith [9]) of the same compound?
A: Its ED50 is 5 mg/kg.

Q: And the ED50 (S. pneumoniae S-4288)?
A: Its ED50 is 62.2 mg/kg.
